In assay [1] the target is Cav2.2 (UniProt Q02294). In words: Oocyte assay (Xenopus oocyte heterologous expression, current at fifth pulse P5). The class given is cell-based. The note with it: Xenopus oocytes; fifth pulse (P5) of 5 Hz train, holding potential −100 mV. Here is the method: The assay was performed on various calcium channels (e.g., Cav2.2 subfamily) whereby the modulation of the calcium channel was measured for each tested compound.

Assay [2] concerns the target T1, Cav2.2 (Homo sapiens, UniProt Q00975).
T1 construct: expressed in transfected cells; host or cells: HEK-293T/17 (transient, FuGENE 6)
The assay is described as follows: HEK assay (whole-cell patch clamp, transiently transfected HEK-293T/17 cells, pulses P1 and P5). Conditions: holding potential −100 mV. Type of assay: cell-based. The method in brief: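 Whole-cell voltage clamp of HEK-293T/17 cells transiently transfected via FuGENE 6, then grown 24 h in 1% serum before recording. From −100 mV holding, trains of five 20–30 ms steps to about +10 mV at 5 Hz, repeated every 30 s; steady-state IC50s taken at first (P1) and fifth (P5) pulses to gauge use-dependent block.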

The mark [3] stands for this setting: fifth pulse (P5) of 5 Hz train, read-out: HEK Cav2.2 P5 IC50.
Setting [4] is: first pulse (P1) of 5 Hz train, read-out: HEK Cav2.2 P1 IC50.

Counter-ions that a name gives are not always drawn. Like-named read-outs stand apart in the source and are kept apart here.

The term IC50 denotes the concentration that gives 50% inhibition.

T1 sequence (Q00975 whole entry): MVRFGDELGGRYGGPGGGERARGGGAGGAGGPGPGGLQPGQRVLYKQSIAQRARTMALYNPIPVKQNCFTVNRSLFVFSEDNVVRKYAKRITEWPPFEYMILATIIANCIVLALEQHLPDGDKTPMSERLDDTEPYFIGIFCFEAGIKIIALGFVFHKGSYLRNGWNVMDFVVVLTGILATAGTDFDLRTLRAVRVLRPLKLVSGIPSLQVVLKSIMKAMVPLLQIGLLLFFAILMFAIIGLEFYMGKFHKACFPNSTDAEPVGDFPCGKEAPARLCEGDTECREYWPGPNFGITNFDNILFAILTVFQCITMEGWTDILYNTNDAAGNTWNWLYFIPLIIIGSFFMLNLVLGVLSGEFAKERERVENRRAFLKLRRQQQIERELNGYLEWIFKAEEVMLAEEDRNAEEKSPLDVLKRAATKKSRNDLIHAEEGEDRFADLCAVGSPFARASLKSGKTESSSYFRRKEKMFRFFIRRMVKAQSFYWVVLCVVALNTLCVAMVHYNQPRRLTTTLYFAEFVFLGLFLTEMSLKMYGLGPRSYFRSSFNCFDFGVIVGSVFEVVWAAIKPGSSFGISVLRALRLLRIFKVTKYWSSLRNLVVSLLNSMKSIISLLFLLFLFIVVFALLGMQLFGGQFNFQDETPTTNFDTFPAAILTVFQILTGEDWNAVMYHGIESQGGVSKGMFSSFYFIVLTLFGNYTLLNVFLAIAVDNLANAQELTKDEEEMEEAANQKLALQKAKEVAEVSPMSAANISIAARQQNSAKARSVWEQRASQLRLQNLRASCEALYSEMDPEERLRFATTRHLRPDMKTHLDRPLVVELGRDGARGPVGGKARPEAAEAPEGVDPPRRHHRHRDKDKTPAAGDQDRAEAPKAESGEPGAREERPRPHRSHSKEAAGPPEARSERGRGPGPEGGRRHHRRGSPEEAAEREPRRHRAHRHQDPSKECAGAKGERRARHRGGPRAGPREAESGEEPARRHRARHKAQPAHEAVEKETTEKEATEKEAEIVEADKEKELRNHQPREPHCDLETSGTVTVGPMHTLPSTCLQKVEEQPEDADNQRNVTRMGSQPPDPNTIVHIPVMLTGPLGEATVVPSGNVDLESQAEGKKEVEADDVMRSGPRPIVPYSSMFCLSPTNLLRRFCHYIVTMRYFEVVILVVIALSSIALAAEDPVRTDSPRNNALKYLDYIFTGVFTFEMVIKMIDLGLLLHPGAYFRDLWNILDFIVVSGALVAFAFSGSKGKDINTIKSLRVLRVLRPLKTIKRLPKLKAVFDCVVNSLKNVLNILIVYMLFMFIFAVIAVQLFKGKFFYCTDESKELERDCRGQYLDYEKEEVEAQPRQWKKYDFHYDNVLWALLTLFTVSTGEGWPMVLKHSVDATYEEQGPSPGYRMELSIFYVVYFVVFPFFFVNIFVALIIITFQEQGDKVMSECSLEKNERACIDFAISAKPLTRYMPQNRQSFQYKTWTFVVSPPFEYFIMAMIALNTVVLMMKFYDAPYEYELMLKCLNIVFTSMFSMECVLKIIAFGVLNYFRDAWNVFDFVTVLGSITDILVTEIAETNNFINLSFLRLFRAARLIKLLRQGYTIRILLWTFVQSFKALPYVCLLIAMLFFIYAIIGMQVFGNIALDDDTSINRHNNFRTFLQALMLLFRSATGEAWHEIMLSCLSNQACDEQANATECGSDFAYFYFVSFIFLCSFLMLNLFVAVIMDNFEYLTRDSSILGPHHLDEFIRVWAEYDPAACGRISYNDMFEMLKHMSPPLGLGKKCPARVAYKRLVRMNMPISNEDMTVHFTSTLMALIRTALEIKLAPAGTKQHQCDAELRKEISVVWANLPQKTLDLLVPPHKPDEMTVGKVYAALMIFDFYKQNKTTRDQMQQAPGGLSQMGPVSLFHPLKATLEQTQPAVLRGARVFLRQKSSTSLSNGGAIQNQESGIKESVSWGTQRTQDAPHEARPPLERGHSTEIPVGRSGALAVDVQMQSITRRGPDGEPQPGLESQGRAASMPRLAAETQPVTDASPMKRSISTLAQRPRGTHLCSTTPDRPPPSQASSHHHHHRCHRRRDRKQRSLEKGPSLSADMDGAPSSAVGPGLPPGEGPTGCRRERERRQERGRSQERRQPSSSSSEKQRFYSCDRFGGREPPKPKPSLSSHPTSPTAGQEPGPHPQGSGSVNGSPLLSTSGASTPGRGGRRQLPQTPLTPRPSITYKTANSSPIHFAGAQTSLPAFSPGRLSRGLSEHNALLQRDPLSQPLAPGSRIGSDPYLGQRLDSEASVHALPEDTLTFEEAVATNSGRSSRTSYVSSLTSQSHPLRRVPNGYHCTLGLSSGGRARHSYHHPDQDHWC
T1 sequence (P54284 whole entry partner): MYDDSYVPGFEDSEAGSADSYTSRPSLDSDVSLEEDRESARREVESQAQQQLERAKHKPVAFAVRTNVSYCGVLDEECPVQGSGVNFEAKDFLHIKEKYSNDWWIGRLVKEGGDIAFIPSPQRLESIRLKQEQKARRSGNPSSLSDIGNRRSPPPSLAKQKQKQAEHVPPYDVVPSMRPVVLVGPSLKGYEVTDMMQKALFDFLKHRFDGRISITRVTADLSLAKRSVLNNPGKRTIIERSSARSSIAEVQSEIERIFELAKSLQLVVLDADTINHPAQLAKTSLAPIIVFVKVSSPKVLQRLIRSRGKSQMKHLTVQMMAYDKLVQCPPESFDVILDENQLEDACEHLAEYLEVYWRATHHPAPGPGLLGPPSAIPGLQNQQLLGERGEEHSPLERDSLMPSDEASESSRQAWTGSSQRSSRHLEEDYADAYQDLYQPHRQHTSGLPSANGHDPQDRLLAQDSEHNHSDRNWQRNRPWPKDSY
T1 sequence (P54289 25-946 partner limits assumed): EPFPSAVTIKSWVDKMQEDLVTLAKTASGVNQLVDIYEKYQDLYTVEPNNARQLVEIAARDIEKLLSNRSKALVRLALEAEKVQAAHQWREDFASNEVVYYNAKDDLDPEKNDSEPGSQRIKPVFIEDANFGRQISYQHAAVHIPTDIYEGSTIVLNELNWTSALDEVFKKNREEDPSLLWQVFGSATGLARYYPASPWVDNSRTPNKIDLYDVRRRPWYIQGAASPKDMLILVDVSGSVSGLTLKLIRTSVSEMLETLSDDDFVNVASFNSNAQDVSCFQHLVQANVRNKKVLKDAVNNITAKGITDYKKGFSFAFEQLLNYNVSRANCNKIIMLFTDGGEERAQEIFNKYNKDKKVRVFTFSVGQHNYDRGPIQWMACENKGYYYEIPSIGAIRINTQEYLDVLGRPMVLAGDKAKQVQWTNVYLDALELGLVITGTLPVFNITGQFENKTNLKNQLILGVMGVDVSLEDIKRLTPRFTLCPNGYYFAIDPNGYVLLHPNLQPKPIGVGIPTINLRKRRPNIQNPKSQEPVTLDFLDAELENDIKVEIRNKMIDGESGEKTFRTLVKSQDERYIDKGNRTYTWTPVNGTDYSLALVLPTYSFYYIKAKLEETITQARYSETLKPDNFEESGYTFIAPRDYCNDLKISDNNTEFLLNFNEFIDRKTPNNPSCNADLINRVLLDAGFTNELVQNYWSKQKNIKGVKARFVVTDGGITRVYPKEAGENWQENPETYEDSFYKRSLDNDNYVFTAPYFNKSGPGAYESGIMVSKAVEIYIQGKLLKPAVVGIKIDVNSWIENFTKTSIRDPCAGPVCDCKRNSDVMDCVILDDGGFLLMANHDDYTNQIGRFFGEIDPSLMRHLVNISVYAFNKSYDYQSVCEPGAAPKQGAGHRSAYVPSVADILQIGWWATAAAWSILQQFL
T1 sequence (P54289 947-1103 partner limits assumed): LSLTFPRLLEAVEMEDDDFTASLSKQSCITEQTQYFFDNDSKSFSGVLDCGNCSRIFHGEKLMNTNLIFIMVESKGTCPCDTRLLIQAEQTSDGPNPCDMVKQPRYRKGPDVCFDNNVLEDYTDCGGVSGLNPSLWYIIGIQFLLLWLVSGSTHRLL

Regarding `CC(C)(C)C(=O)N(Cc1csc(N2CCCCC2)n1)c1ccc(F)cc1` [Compound 2, N-(4-fluorophenyl)-2,2-dimethyl-N-(2-piperidin-1-yl-thiazol-4-ylmethyl)-propionamide hydrochloride], the IC50 was found to be 16.9 µM against Cav2.2 [1], 2 µM at Cav2.2 [2] (setting [3]) and 16.8 µM at Cav2.2 [2] (setting [4]).
For `CCN(CC)c1ccc(CN(C(=O)C(C)(C)C)c2ccc(F)cc2)cn1` [Compound 3, N-(6-diethylamino-pyridin-3-ylmethyl)-N-(4-fluorophenyl)-2,2-dimethyl-propionamide trifluoroacetate], in that order: 12.1 µM, 1.3 µM and 4.3 µM.
For `CCN(c1ccc(CN(C(=O)C(C)(C)C)c2ccc(F)cc2)cn1)C1CC1` [Compound 7, N-(6-(Cyclopropyl(ethyl)amino)-pyridin-3-ylmethyl)-N-(4-fluorophenyl)-2,2-dimethyl-propionamide], in that order: 8 µM, 1.7 µM and 12.9 µM.
The corresponding values for `CC(C)(C)C(=O)N(Cc1cnc(N2CCCCC2)nc1)c1ccc(F)cc1` [Compound 8, N-(4-fluorophenyl)-2,2-dimethyl-N-(2-piperidin-1-yl-pyrimidin-5-ylmethyl)-propionamide hydrochloride] are 8.7 µM, 1.6 µM and 5.1 µM.
For the compound `CN1CCN(c2ccc(CN(C(=O)NC(C)(C)C)c3ccc(F)cc3)cn2)CC1` [Compound 11, 3-tert-butyl-1-(4-fluorophenyl)-1-(6-(4-methyl-piperazin-1-yl)-pyridin-3-ylmethyl)-urea hydrochloride], the 50% inhibitory concentration (IC50) against Cav2.2 [1] turned out to be 44 µM.
The same measure, in the same setting: to `CN1CCN(c2ccc(CN(C(=O)C3CCCO3)c3ccc(F)cc3)cn2)CC1` (stereo not drawn) [Compound 16, TETRAHYDRO-FURAN-2-CARBOXYLIC ACID (4-FLUOROPHENYL)-(6-(4-METHYL-PIPERAZIN-1-YL)-PYRIDIN-3-YLMETHYL)-AMIDE TRIFLUOROACETATE] belongs 86 µM.
The compound `CN1CCN(c2ccc(CN(C(=O)C(C)(C)C)c3ccc(F)cc3)cn2)CC1` [Compound 17, N-(4-Fluorophenyl)-N-[6-(4-methyl-piperazin-1-yl)-pyridin-3-ylmethyl)-2,2-dimethyl-propionamide] registered a half-maximal inhibitory concentration (IC50) against Cav2.2 [1] of 41.9 µM.
As for `CN(CCc1ccccn1)c1ccc(CN(C(=O)C(C)(C)C)c2ccc(F)cc2)cn1` [Compound 18, N-(4-Fluorophenyl)-2,2-dimethyl-N-{6-[methyl-(2-pyridin-2-yl-ethyl)-amino]-pyridin-3-ylmethyl}-propionamide], the results for the 50% inhibitory concentration (IC50) on Cav2.2 [1], at Cav2.2 [2] (setting [3]) and on Cav2.2 [2] (setting [4]) were 7.1 µM, 1.7 µM and 4 µM, respectively.
For the compound `CN(CCN1CCOCC1)c1ccc(CN(C(=O)C(C)(C)C)c2ccc(F)cc2)cn1` [Compound 20, N-(4-Fluorophenyl)-2,2-dimethyl-N-{6-[methyl-(2-morpholin-4-yl-ethyl)-amino]-pyridin-3-ylmethyl}-propionamide], the concentration for half-maximal inhibition (IC50) against Cav2.2 [1] was determined as 35.5 µM; at Cav2.2 [2] (setting [3]) it was 5.2 µM; on Cav2.2 [2] (setting [4]), 22.2 µM.
As for `Cc1cc(F)ccc1N(Cc1ccc(N2CCN(C)CC2)nc1)C(=O)C(C)(C)C` [Compound 21, N-(4-Fluoro-2-methyl-phenyl)-2,2-dimethyl-N-[6-(4-methyl-piperazin-1-yl)-pyridin-3-ylmethyl]-propionamide], the IC50 on Cav2.2 [1] worked out at 18 µM; at Cav2.2 [2] (setting [3]), 2.7 µM; on Cav2.2 [2] (setting [4]), 10.5 µM.
The corresponding values for `CN1CCCN(c2ccc(CN(C(=O)C(C)(C)C)c3ccc(F)cc3)cn2)CC1` [Compound 22, N-(4-Fluorophenyl)-2,2-dimethyl-N-[6-(4-methyl-[1,4]diazepan-1-yl)-pyridin-3-ylmethyl]-propionamide] are 18.3 µM, 5.7 µM and 27.8 µM.
For `CCC(C)(C)C(=O)N(Cc1ccc(N(C)CCc2ccccn2)nc1)c1ccc(F)cc1` [Compound 24, N-(4-Fluorophenyl)-2,2-dimethyl-N-{6-[methyl-(2-pyridin-2-yl-ethyl)-amino]-pyridin-3-ylmethyl}-butyramide], in that order: 3.8 µM, 0.6 µM and 2.9 µM.
As to `CC(C)(C)C(=O)N(Cc1ccc(N2CCN(c3ccccn3)CC2)nc1)c1ccc(F)cc1` [Compound 25, N-(4-Fluorophenyl)-2,2-dimethyl-N-[6-(4-pyridin-2-yl-piperazin-1-yl)-pyridin-3-ylmethyl]-propionamide], the values for the IC50 against Cav2.2 [1], on Cav2.2 [2] (setting [3]) and at Cav2.2 [2] (setting [4]) were 4.2 µM, 0.3 µM and 2.4 µM, respectively.
The corresponding values for `CCC(C)(C)C(=O)N(Cc1ccc(N2CCN(c3ccccn3)CC2)nc1)c1ccc(F)cc1` [Compound 26, N-(4-Fluorophenyl)-2,2-dimethyl-N-[6-(4-pyridin-2-yl-piperazin-1-yl)-pyridin-3-ylmethyl]-butyamide] are 12.2 µM, 0.4 µM and 1.7 µM.
For `CN(CCc1cccnc1)c1ccc(CN(C(=O)C(C)(C)C)c2ccc(F)cc2)cn1` [Compound 27, N-(4-Fluorophenyl)-2,2-dimethyl-N-{6-[methyl-(2-pyridin-3-yl-ethyl)-amino]-pyridin-3-ylmethyl}-propionamide], in that order: 5.2 µM, 1.1 µM and 4.6 µM.
For `CN(CCOc1ccccn1)c1ccc(CN(C(=O)C(C)(C)C)c2ccc(F)cc2)cn1` [Compound 29, N-(4-Fluorophenyl)-2,2-dimethyl-N-(6-{methyl-[2-(pyridin-2-yloxy)-ethyl]-amino}-pyridin-3-ylmethyl)-propanamide], in that order: 8.7 µM, 1 µM and 5.2 µM.
As for `CC(C)c1ccccc1N(Cc1ccc(N2CCN(C)CC2)nc1)C(=O)C(C)(C)C` [Compound 30, N-(2-Isopropyl-phenyl)-2,2-dimethyl-N-[6-(4-methyl-piperazin-1-yl)-pyridin-3-ylmethyl]-propionamide], the 50% inhibitory concentration (IC50) against Cav2.2 [1] is 23.6 µM; at Cav2.2 [2] (setting [3]), 2.7 µM; on Cav2.2 [2] (setting [4]), 18.9 µM.
For `CCN(CC)c1ccc(CN(C(=O)C(C)(C)CC)c2ccc(F)cc2)cn1` [Compound 31, N-(6-Diethylamino-pyridin-3-ylmethyl)-N-(4-fluorophenyl)-2,2-dimethyl-butyramide], in that order: 6.6 µM, 1.3 µM and 5.5 µM.
For `Cc1cc(C)cc(N(Cc2ccc(N3CCN(C)CC3)nc2)C(=O)C(C)(C)C)c1` [Compound 32, N-(3,5-dimethylphenyl)-2,2-dimethyl-N-[6-(4-methyl-piperazin-1-yl)-pyridin-3-ylmethyl]-propionamide], in that order: 21.2 µM, 2.6 µM and 24.5 µM.
The corresponding values for `CC(C)(C)C(=O)N(Cc1ccc(N2CCC(N3CCOCC3)CC2)nc1)c1ccc(F)cc1` [Compound 33, N-(4-Fluorophenyl)-2,2-dimethyl-N-(4-morpholin-4-yl-3,4,5,6-tetrahydro-2H-[1,2′]bipyridinyl-5′-ylmethyl)-propionamide] are 22.9 µM, 11.5 µM and 37.6 µM.
On to `CC(C)(C)C(=O)N(Cc1ccc(N2CCC(N3CCCC3)CC2)nc1)c1ccc(F)cc1` [Compound 34, N-(4-Fluorophenyl)-2,2-dimethyl-N-(4-pyrrolidin-1-yl-3,4,5,6-tetrahydro-2H-[1,2′]bipyridinyl-5′-ylmethyl)-propionamide], for which the results for the IC50 at Cav2.2 [1], at Cav2.2 [2] (setting [3]) and on Cav2.2 [2] (setting [4]) were 19.6 µM, 2.4 µM and 5.5 µM, respectively.
For `CCC(C)(C)C(=O)N(Cc1ccc(N2CCN(C)CC2)nc1)c1ccccc1C(C)C` [Compound 35, N-(2-Isopropyl-phenyl)-2,2-dimethyl-N-[6-(4-methyl-piperazin-1-yl)-pyridin-3-ylmethyl]-butyramide], the figures for the half-inhibitory concentration (IC50) on Cav2.2 [1], on Cav2.2 [2] (setting [3]) and at Cav2.2 [2] (setting [4]) were 13.2 µM, 1.4 µM and 4.4 µM, respectively.
For `CCN(CC)c1nc(CN(C(=O)C(C)(C)C)c2ccc(F)cc2)cs1` [Compound 64, N-(2-Diethylamino-thiazol-4-ylmethyl)-N-(4-fluorophenyl)-2,2-dimethyl-propionamide], in that order: 18.3 µM, 2.4 µM and 6 µM.
The corresponding values for `CC(C)(C)C(=O)N(Cc1ccc(N2CCCCC2)nc1)c1ccc(F)cc1` [Compound 70, N-(4-Fluorophenyl)-2,2-dimethyl-N-(3,4,5,6-tetrahydro-2H-[1,2′]bipyridinyl-5′-ylmethyl)-propionamide] are 9.8 µM, 1.9 µM and 12.1 µM.
For `CN1CCN(c2ccc(CN(C(=O)C3CC3)c3ccc(F)cc3)cn2)CC1` [Compound 103, Cyclopropanecarboxylic acid (4-fluorophenyl)-[6-(4-methyl-piperaizn-1-yl)-pyridin-3-ylmethyl]-amide], on Cav2.2 [1], 129 µM corresponded to half-maximal inhibition (IC50).
`CCN(CC)c1ccc(CN(C(=O)C2CCOC2)c2ccc(F)cc2)cn1` (stereo not drawn) [Compound 112, Tetrahydro-furan-3-carboxylic acid (6-diethylamino-pyridin-3-ylmethyl)-(4-fluorophenyl)-amide] gave an IC50 against Cav2.2 [1] of 37 µM.
As to `CCN(CC)c1ccc(CN(C(=O)C2CCOCC2)c2ccc(F)cc2)cn1` [Compound 113, Tetrahydro-pyran-4-carboxylic acid (6-diethylamino-pyridin-3-ylmethyl)-(4-fluorophenyl)-amide], the midpoint of inhibition at Cav2.2 [1], the IC50, lay at 30 µM.
